In brackets after ≈: the same amount, converted by molar mass. Like-named read-outs stand apart in the source and are kept apart here. Marks after values point to notes of the source that are not given here.
Assays:
[1] = tested on: Mycobacterium tuberculosis H37Rv (Mtb); conditions: cited from earlier work
[2] = tested on: Mycobacterium tuberculosis H37Rv (Mtb); conditions: cited from earlier work; remark: listed apart in the source
[3] = tested on: Trichophyton interdigitale 445; test: Antifungal microdilution broth, TI; format: cell-based; conditions: read-out: MIC TI
[4] = tested on: Escherichia coli CCM 4517; test: Antibacterial microdilution broth, EC; format: cell-based; conditions: Escherichia coli, read-out: MIC EC
[5] = tested on: Lichtheimia corymbifera 272; test: Antifungal microdilution broth, LC; format: cell-based; conditions: read-out: MIC LC
[6] = tested on: Staphylococcus aureus CCM 4516/08; test: Antibacterial microdilution broth, SA; format: cell-based
[7] = tested on: Staphylococcus epidermidis H 6966/08; test: Antibacterial microdilution broth, SE; format: cell-based; conditions: read-out: MIC SE
[8] = tested on: Pseudomonas aeruginosa CCM 1961; test: Antibacterial microdilution broth, PA; format: cell-based; conditions: Pseudomonas aeruginosa, read-out: MIC PA
[9] = tested on: Staphylococcus aureus H 5996/08 methicillin resistant; test: microbe, parasite or virus in culture; format: cell-based; conditions: for MIC: Staphylococcus aureus, MRSA, read-out: MIC MRSA
[10] = tested on: M. avium ssp. avium CNCTC My 80/72 (ATCC 15769); test: Antimycobacterial microdilution MABA, M. avium; format: cell-based, Mycobacterium avium; conditions: for MIC: Mycobacterium avium
[11] = tested on: Aspergillus fumigatus 231; test: Antifungal microdilution broth, AF; format: cell-based; conditions: read-out: MIC AF
Trichosporon asahii 1188 = test: Antifungal microdilution broth, TA; format: cell-based; conditions: read-out: MIC TA
[12] = tested on: M. kansasii CNCTC My 235/80 (ATCC 12478); test: Antimycobacterial microdilution MABA, M. kansasii; format: cell-based, Mycobacterium kansasii; conditions: for MIC: Mycobacterium kansasii
[13] = tested on: Enterococcus sp. J 14365/08; test: Antibacterial microdilution broth, EF; format: cell-based; conditions: Enterococcus, read-out: MIC EF
[14] = human, HepG2 cells
Candida glabrata 20/I = test: Antifungal microdilution broth, CG; format: cell-based; conditions: Nakaseomyces glabratus, 20/I, read-out: MIC CG
Candida tropicalis 156 = test: Antifungal microdilution broth, CT; format: cell-based; conditions: read-out: MIC CT
[15] = tested on: Candida albicans ATCC 44859; test: Antifungal microdilution broth, CA; format: cell-based; conditions: Candida albicans, read-out: MIC CA
[16] = tested on: Mycobacterium smegmatis CCM 4622 (ATCC 607); test: Antimycobacterial microdilution, M. smegmatis; format: cell-based; conditions: Mycolicibacterium smegmatis, read-out: M. smeg. ATCC 607 MIC
Candida krusei E28 = test: Antifungal microdilution broth, CK; format: cell-based; conditions: Pichia kudriavzevii, read-out: MIC CK
[17] = tested on: Mycobacterium tuberculosis H37Rv CNCTC My 331/88 (ATCC 27294); test: Antimycobacterial microdilution MABA, M. tuberculosis; format: cell-based; conditions: for MIC: Mycobacterium tuberculosis
[18] = Middlebrook 7H9, pH = 6.6, MABA
[19] = Trichophyton interdigitale, 445, 72 h
[20] = Trichophyton interdigitale, 445, 120 h
[21] = Lichtheimia corymbifera, 272, 24 h
[22] = Lichtheimia corymbifera, 272, 48 h
[23] = Staphylococcus aureus, CCM4516, 24 h, read-out: MIC SA, 24 h
[24] = Staphylococcus aureus, CCM4516, 48 h, read-out: MIC SA, 48 h
[25] = Staphylococcus epidermidis, H6966/08, 24 h
[26] = Staphylococcus epidermidis, H6966/08, 48 h
[27] = Middlebrook 7H9 with OADC, pH 6.6, MABA
[28] = ATCC15769, pH 6.6, read-out: M. avium ATCC 15769 MIC
[29] = Aspergillus fumigatus, 231, 24 h
[30] = Aspergillus fumigatus, 231, 48 h
[31] = Trichosporon asahii, 1188, 24 h
[32] = Trichosporon asahii, 1188, 48 h
[33] = ATCC12478, pH 6.6, read-out: M. kans. ATCC 12478 MIC, Middlebrook 7H9 with OADC, pH 6.6, MABA
[34] = Middlebrook 7H9 with OADC growth supplement, pH = 6.6, MABA
[35] = read-out: Mtb H37Rv ATCC 27294 MIC, Middlebrook 7H9 with OADC growth supplement, pH = 6.6, MABA

## COc1ccccc1NC(=O)c1cnccn1 [Amide R1=H R2=2-OCH3]
[1]; [18]
  Amides MIC: >100 ^b [27] μg/mL

## O=C(Nc1cccc(C(F)(F)F)c1)c1cnccn1 [Amide R1=H R2=3-CF3]
[1]; [18]
  Amides MIC: 50 µg/mL
[1]; conditions not footnoted
  Amides MIC: 6.25 µg/mL
[2]
  Amides Inhibition (%) at 6.25 μg/mL (TAACF): 99 [32] %

## O=C(Nc1cccc(Cl)c1)c1cnccn1 [Amide R1=H R2=3-Cl]
[1]; [18]
  Amides MIC: >100 ^b [27] μg/mL
[2]
  Amides Inhibition (%) at 6.25 μg/mL (TAACF): 14 [33] %

## COc1cccc(NC(=O)c2cnccn2)c1 [Amide R1=H R2=3-OCH3]
[1]; [18]
  Amides MIC: >100 ^b [27] μg/mL

## Cc1ccc(NC(=O)c2cnccn2)cc1 [Amide R1=H R2=4-CH3]
[1]; [18]
  Amides MIC: 100 ^b [27] μg/mL
[2]
  Amides Inhibition (%) at 6.25 μg/mL (TAACF): 86 [32] %

## O=C(Nc1ccc(Cl)cc1)c1cnccn1 [Amide R1=H R2=4-Cl]
[1]; [18]
  Amides MIC: 50 ^b [27] μg/mL
[2]
  Amides Inhibition (%) at 6.25 μg/mL (TAACF): 4 [33] %

## COc1ccc(NC(=O)c2cnccn2)cc1 [Amide R1=H R2=4-OCH3]
[1]; [18]
  Amides MIC: >100 ^b [27] μg/mL

## O=C(Nc1ccccc1)c1cnccn1 [Amide R1=H R2=H]
[1]; [18]
  Amides MIC: >100 ^b [27] μg/mL
[2]
  Amides Inhibition (%) at 6.25 μg/mL (TAACF): 0 [31] %

## CC(=O)Oc1ccc(C(=O)Nc2cnc(Cl)cn2)cc1 [Compound 2d-Ac]
[3]; [19]
  MIC: > 125 µM
[3]; [20]
  MIC: > 125 µM
[4]; CCM4517, 24 h
  MIC: > 125 µM
[4]; CCM4517, 48 h
  MIC: > 125 µM
[5]; [21]
  MIC: > 125 µM
[5]; [22]
  MIC: > 125 µM
[6]; [23]
  MIC: 0.98 µM (≈ 0.286 µg/mL)
[6]; [24]
  MIC: 0.98 µM (≈ 0.286 µg/mL)
[7]; 24 h
  MIC: >125 µM
[7]; 48 h
  MIC: >125 µM
[7]; [25]
  MIC: > 125 µM
[7]; [26]
  MIC: > 125 µM
[8]; CCM1961, 72 h
  MIC: > 125 µM
[8]; CCM1961, 120 h
  MIC: > 125 µM
[9]; 24 h
  MIC MRSA: >125 µM
  MIC: > 125 µM
[9]; 48 h
  MIC MRSA: >125 µM
  MIC: > 125 µM
[10]; [27]
  M. avium ATCC 15769 MIC: >100 µg/mL
[10]; [28]
  MIC: > 100 µg/mL
[11]; [29]
  MIC: > 125 µM
[11]; [30]
  MIC: > 125 µM
Trichosporon asahii 1188; [31]
  MIC: > 125 µM
Trichosporon asahii 1188; [32]
  MIC: > 125 µM
[12]; [27]
  M. kans. ATCC 12478 MIC: >100 µg/mL
[12]; [33]
  MIC: > 100 µg/mL
[13]; SP.J14365/08, 24 h
  MIC: > 125 µM
[13]; SP.J14365/08, 48 h
  MIC: > 125 µM
other
  melting point: 170.9 to 171.8 °C
[14]
  IC50 at 24 h: > 500 µM
Candida glabrata 20/I; 24 h
  MIC: > 125 µM
Candida glabrata 20/I; 48 h
  MIC: > 125 µM
Candida tropicalis 156; Candida tropicalis, 156, 24 h
  MIC: > 125 µM
Candida tropicalis 156; Candida tropicalis, 156, 48 h
  MIC: > 125 µM
[15]; ATCC44859, 24 h
  MIC: > 125 µM
[15]; ATCC44859, 48 h
  MIC: > 125 µM
[16]
  MIC: 250 µg/mL (≈ 857 µM)
Candida krusei E28; E28, 24 h
  MIC: > 125 µM
Candida krusei E28; E28, 48 h
  MIC: > 125 µM
[17]; [34]
  Mtb H37Rv ATCC 27294 MIC: >100 µg/mL
[17]; [35]
  MIC: > 100 µg/mL
[17]; molar concentration
  Mtb MIC: inactive

## Cc1ccc(C(=O)Nc2cnc(Cl)cn2)cc1 [Compound 2h]
[3]; [19]
  MIC: > 125 µM
[3]; [20]
  MIC: > 125 µM
[4]; CCM4517, 24 h
  MIC: > 125 µM
[4]; CCM4517, 48 h
  MIC: > 125 µM
[5]; [21]
  MIC: > 125 µM
[5]; [22]
  MIC: > 125 µM
[6]; 24 h, read-out: MIC SA
  MIC: >125 µM
[6]; [23]
  MIC: > 125 µM
[6]; [24]
  MIC: > 125 µM
[7]; [25]
  MIC: > 125 µM
[7]; [26]
  MIC: > 125 µM
[8]; CCM1961, 72 h
  MIC: > 125 µM
[8]; CCM1961, 120 h
  MIC: > 125 µM
[9]; 24 h
  MIC: > 125 µM
[9]; 48 h
  MIC: > 125 µM
[10]; [27]
  M. avium ATCC 15769 MIC: >100 µg/mL
[10]; [28]
  MIC: > 100 µg/mL
[11]; [29]
  MIC: > 125 µM
[11]; [30]
  MIC: > 125 µM
Trichosporon asahii 1188; [31]
  MIC: > 125 µM
Trichosporon asahii 1188; [32]
  MIC: > 125 µM
[12]; [27]
  M. kans. ATCC 12478 MIC: >100 µg/mL
[12]; [33]
  MIC: > 100 µg/mL
[13]; SP.J14365/08, 24 h
  MIC: > 125 µM
[13]; SP.J14365/08, 48 h
  MIC: > 125 µM
other
  melting point: 186.4 to 187.1 °C
[14]
  IC50 at 24 h: > 250 µM
Candida glabrata 20/I; 24 h
  MIC: > 125 µM
Candida glabrata 20/I; 48 h
  MIC: > 125 µM
Candida tropicalis 156; Candida tropicalis, 156, 24 h
  MIC: > 125 µM
Candida tropicalis 156; Candida tropicalis, 156, 48 h
  MIC: > 125 µM
[15]; ATCC44859, 24 h
  MIC: > 125 µM
[15]; ATCC44859, 48 h
  MIC: > 125 µM
[16]
  MIC: ≥ 500 µg/mL
Candida krusei E28; E28, 24 h
  MIC: > 125 µM
Candida krusei E28; E28, 48 h
  MIC: > 125 µM
[17]; [34]
  Mtb H37Rv ATCC 27294 MIC: 6.25 µg/mL
[17]; [35]
  MIC: 3.13 to 6.25 µg/mL
[17]; read-out: Mtb MIC, molar concentration
  MIC: 25.2 µM

## O=C(Nc1cncc(Cl)n1)c1cccc(C(F)(F)F)c1 [Compound 3n, N-(6-chloropyrazin-2-yl)-3-(trifluoromethyl)benzamide]
[10]; ATCC15769, Middlebrook 7H9 with OADC, pH 6.6, MABA, read-out: M. avium ATCC 15769 MIC
  MIC: 50 µg/mL (≈ 166 µM)
[12]; ATCC12478, Middlebrook 7H9 with OADC, pH 6.6, MABA, read-out: M. kans. ATCC 12478 MIC
  MIC: 25 µg/mL (≈ 82.9 µM)
other
  melting point: 124.2 to 125 °C
[14]
  IC50 at 24 h: > 250 µM
[16]; Middlebrook 7H9 with OADC, resazurin
  MIC: 125 µg/mL (≈ 414 µM)
[17]; Middlebrook 7H9 with OADC growth supplement, pH = 6.6, MABA, read-out: Mtb H37Rv ATCC 27294 MIC
  MIC: 25 µg/mL
[17]; molar concentration, read-out: Mtb MIC
  MIC: 82.9 µM

From publication PMC6225228, “Design, Synthesis and Evaluation of N-pyrazinylbenzamides as Potential Antimycobacterial Agents” (Molecules : A Journal of Synthetic Chemistry and Natural …, 2018)
